The source of these data is publication PMC12722920, “Pharmacokinetics and pharmacodynamics of cannabigerol (CBG) in the C57BL/6Crl mouse” (Frontiers in Pharmacology, 2025).

Read-outs that look alike come from different tables or passages of the source.

For data set [1], the system named is C57BL/6Crl mice. Set-up: method as in Zagzoog et al., 2024. To be noted: THC, ref Zagzoog et al., 2024, cited from earlier work.
Data set [2] deals with C57BL/6Crl mice. The arrangement: method as in Zagzoog et al., 2024. Conditions: THC, ref Zagzoog et al., 2024, cited from earlier work. The source holds these as a separate data set.
In data set [3] the test system is C57BL/6Crl mice. Description: Open field test (OFT): locomotion and anxiety-like behaviour. It counts as in vivo. Conditions: for OFT time in the center: compared to the vehicle. Here is the method: Catalepsy was assessed in the ring holding assay; mice were positioned with their forepaws grasping onto a 0.5 cm thick ring clamp elevated 5 cm above the testing surface. The duration of time while the ring was held was recorded in seconds, with each trial terminated if the mouse’s forepaw released from the bar, upon turning of the head or body, or after 60 s of immobility. Catalepsy was evaluated three times consecutively, and the average time spent holding the bar was reported as a percent of the maximum possible effect (% MPE, up to 60 s). Internal body temperature was measured via a rectal thermometer. Nociception was determined by assessing tail-flick latency, where mice were restrained with their tails placed ∼1 cm into 52 °C ± 2 °C water. The time (sec) until the tail was removed was measured, with observations ending at 20 s and represented as a % MPE. Locomotion and anxiety-like behaviour were assessed in the OFT. Mice were placed in an open space (90 cm × 90 cm) and recorded for 5 min. Total distance travelled (cm), velocity (cm/sec), time in the centre quadrant (sec), and central quadrant entries were measured with EthoVision XT (Noldus Information Technology Inc., Leesburg, VA).
In Phase I (Part B), after determining the timepoint at which blood CBG concentrations were highest for each respective route of administration, the timing for each measure in the tetrad was adjusted. An assessment was conducted in a new cohort consisting of both male and female mice (n = 4 per sex per route) receiving a dose of 10 mg/kg of CBG via i.v., i.p., or p.o. routes. For those administered with i.v. CBG, the timing was: catalepsy at 5 min, body temperature at 15 min, tail-flick latency at 20 min, and OFT at 25 min post-injection. For i.p. CBG, measurements were taken at 20 min for catalepsy, 25 min for body temperature, 30 min for tail-flick latency, and 35 min for OFT post-injection. For p.o. CBG, data collection was scheduled as follows: catalepsy at 170 min, body temperature at 175 min, tail-flick latency at 180 min, and OFT at 185 min post-injection.

The conditions of data set [4]: ref Zagzoog et al., 2024, cited from earlier work.
The subject of data set [5] is C57BL/6Crl mice. The arrangement: method as in Zagzoog et al., 2024. To be noted: THC, ref Zagzoog et al., 2024, cited from earlier work. The source holds these as a separate data set.
For data set [6] the following is noted: THC 10 mg/kg i.v.; ref Zagzoog et al., 2024; cited from earlier work.

Consider `CCCCCc1cc(O)c2c(c1)OC(C)(C)[C@@H]1CCC(C)=C[C@@H]21` [THC, Δ^9-Tetrahydrocannabinol], for which the ED50 catalepsy with C57BL/6Crl mice [1] (both sexes) was 6.9 mg/kg; in the data set with C57BL/6Crl mice [1] (females), 6.0 mg/kg; with C57BL/6Crl mice [1] (males), 8.6 mg/kg. The ED50 tail-flick latency is recorded as 4.1 mg/kg in the data set on C57BL/6Crl mice [2] (both sexes), 3.6 mg/kg in the data set with C57BL/6Crl mice [2] (females) and 4.9 mg/kg in the data set on C57BL/6Crl mice [2] (males). Moreover, the “OFT entries to the center” value in the data set on C57BL/6Crl mice [3] (10 mg/kg i.p., compared to vehicle) is on record as “entered the center fewer times than their vehicle-treated counterparts”; with C57BL/6Crl mice [3] (10 mg/kg i.v., compared to vehicle), “entered the center fewer times than their vehicle-treated counterparts”; in the data set with C57BL/6Crl mice [3] (10 mg/kg p.o.), “entered the center of the OFT fewer times than vehicle oral gavage mice”. In addition, in the data set on C57BL/6Crl mice [3] (10 mg/kg i.v., 25 min post-administration, male and female mice), the OFT velocity entry is given as “reduced velocity compared to vehicle treatment”. In addition, the “OFT time in the center” value in the data set on C57BL/6Crl mice [3] (10 mg/kg i.v.) and in the data set on C57BL/6Crl mice [3] (10 mg/kg p.o.) was “Time in the center was reduced” each time. In addition, the results for the Cmax in data set [4] (10 mg/kg THC i.p.) and in data set [4] (THC p.o.) were 377 ng/mL and 149.5 ng/mL, respectively. For the same molecule, the “C at 10 min (blood concentration 10 min post-administration)” value in data set [4] (THC i.v., males) was 1,290 ng/mL. Further, in data set [4] (THC), the “p.o. Cmax as percent of i.p. Cmax” value is on record as 40%. Also, the figures for the ED50 body temperature in the data set on C57BL/6Crl mice [5] (both sexes), with C57BL/6Crl mice [5] (females) and in the data set on C57BL/6Crl mice [5] (males) were 7.8 mg/kg, 7.3 mg/kg and 8.3 mg/kg, respectively. Moreover, the mean blood concentration in data set [6] is reported as 526 ng/mL.

As a reminder, the Cmax is the maximum level reached in the sampled fluid or tissue.
